Results taken from ChEMBL document CHEMBL2311391, “Novel inhibitors of protein arginine deiminase with potential activity in multiple sclerosis animal model” (J Med Chem, 2013).

Experiments:
[1] = species: Mus musculus; assay: Antiinflammatory activity against MOG peptide-induced experimental autoimmune encephalomyelitis mouse model assessed as CD3 marker measured on day 24 after 2 weeks of treatment (reference value: 4.8 +/- 0.19 /mm'2); type: functional
[2] = species: Mus musculus; assay: Toxicity in mouse at 10 mg for 5 days; type: organism-based; details: in vivo, 120 h
[3] = species: Mus musculus; assay: Toxicity in mouse at 20 mg as single dose; type: organism-based; details: in vivo

CC1(C)NC(=O)N(CN2CCNCC2)C1=O
Activity [1]: 3.8 mm2
Activity [2]: Non-toxic
Activity [3]: Non-toxic
